The results in this text go back to the supplement of paper PMC10307832.

Compound in the assay “Motesanib + Vorinostat”: CC1(C)CNc2cc(NC(=O)c3cccnc3NCc3ccncc3)ccc21 [Motesanib] + O=C(CCCCCCC(=O)Nc1ccccc1)NO [Vorinostat] (partner 1 µM)
As to the kind of experiment: relative viability (nuclei count vs DMSO), 5 days (fraction); higher = more cells survive. An outline of the steps: (§1)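 Relative viability divides the nuclei count in treated wells by that in vehicle wells. Lung cancer cell lines were seeded in 1536-well plates, dosed by pin tool the next day, and fixed and stained after 5 days in one step with final 0.05% Triton X-100, 1% formaldehyde and 1 ug/ml Hoechst. Dosing was a single drug or a fixed anchor-drug dose plus five library-drug doses (not always all listed) in √10 steps, and values are medians of duplicate plates imaged at 4×.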

Compound in the assay “Motesanib + AZD7762”: CC1(C)CNc2cc(NC(=O)c3cccnc3NCc3ccncc3)ccc21 [Motesanib] + NC(=O)Nc1cc(-c2cccc(F)c2)sc1C(=O)N[C@H]1CCCNC1 [AZD7762] (partner 0.2 µM)
The description is as above. An outline of the steps: as §1

Turning to HCC-78, the relative viability in the assay with Motesanib + Vorinostat (first compound 0.01 µM) amounted to 0.429; with Motesanib + Vorinostat (first compound 0.03162 µM), 0.467; with Motesanib + Vorinostat (first compound 0.1 µM), 0.494; in the assay with Motesanib + Vorinostat (first compound 1 µM), 0.413; with Motesanib + AZD7762 (first compound 0.01 µM), 0.657; with Motesanib + AZD7762 (first compound 0.03162 µM), 0.547. For the same cell line, the relative viability with Motesanib + AZD7762 (first compound 0.1 µM) is 0.907; in the assay with Motesanib + AZD7762 (first compound 1 µM), 0.795.

HCC-366: the relative viability worked out at 0.382 with Motesanib + Vorinostat (first compound 0.01 µM); 0.388 in the assay with Motesanib + Vorinostat (first compound 0.03162 µM); 0.443 with Motesanib + Vorinostat (first compound 0.1 µM); 0.375 in the assay with Motesanib + Vorinostat (first compound 0.3162 µM); 0.308 with Motesanib + Vorinostat (first compound 1 µM); 0.278 with Motesanib + AZD7762 (first compound 0.01 µM). The relative viability with Motesanib + AZD7762 (first compound 0.03162 µM) worked out at 0.214; with Motesanib + AZD7762 (first compound 0.1 µM) it was 0.46; in the assay with Motesanib + AZD7762 (first compound 0.3162 µM) it was 0.248; in the assay with Motesanib + AZD7762 (first compound 1 µM), 0.207.

As to HCC-827, the relative viability with Motesanib + Vorinostat (first compound 0.01 µM) worked out at 0.759; with Motesanib + Vorinostat (first compound 0.03162 µM), 0.945; with Motesanib + Vorinostat (first compound 0.1 µM), 0.881; with Motesanib + Vorinostat (first compound 0.3162 µM) it was 0.666; in the assay with Motesanib + Vorinostat (first compound 1 µM) it was 0.885; with Motesanib + AZD7762 (first compound 0.01 µM) it was 0.216. Moreover, the relative viability with Motesanib + AZD7762 (first compound 0.03162 µM) turned out to be 0.29; with Motesanib + AZD7762 (first compound 0.1 µM), 0.196; with Motesanib + AZD7762 (first compound 0.3162 µM), 0.213; with Motesanib + AZD7762 (first compound 1 µM), 0.175.

Take HOP-62: the relative viability in the assay with Motesanib + Vorinostat (first compound 0.01 µM) was 0.668; with Motesanib + Vorinostat (first compound 0.03162 µM), 0.677; in the assay with Motesanib + Vorinostat (first compound 0.1 µM), 0.599; with Motesanib + Vorinostat (first compound 0.3162 µM), 0.972; in the assay with Motesanib + Vorinostat (first compound 1 µM), 0.799; with Motesanib + AZD7762 (first compound 0.01 µM) it was 0.456. Moreover, the relative viability came out at 0.836 with Motesanib + AZD7762 (first compound 0.03162 µM), 0.613 with Motesanib + AZD7762 (first compound 0.1 µM), 0.761 with Motesanib + AZD7762 (first compound 0.3162 µM) and 0.595 with Motesanib + AZD7762 (first compound 1 µM).

Take IA-LM: the relative viability in the assay with Motesanib + Vorinostat (first compound 0.01 µM) is 0.91; with Motesanib + Vorinostat (first compound 0.03162 µM), 0.936; with Motesanib + Vorinostat (first compound 0.1 µM), 0.953; in the assay with Motesanib + Vorinostat (first compound 0.3162 µM), 0.935; with Motesanib + Vorinostat (first compound 1 µM), 0.767.

In the case of LC-2-ad, the relative viability amounted to 0.694 in the assay with Motesanib + Vorinostat (first compound 0.01 µM); 0.694 with Motesanib + Vorinostat (first compound 0.03162 µM); 0.811 in the assay with Motesanib + Vorinostat (first compound 0.1 µM); 0.808 with Motesanib + Vorinostat (first compound 0.3162 µM); 0.709 in the assay with Motesanib + Vorinostat (first compound 1 µM); 0.858 in the assay with Motesanib + AZD7762 (first compound 0.01 µM). Further, the relative viability in the assay with Motesanib + AZD7762 (first compound 0.03162 µM) turned out to be 0.876; in the assay with Motesanib + AZD7762 (first compound 0.1 µM) it was 0.868; with Motesanib + AZD7762 (first compound 0.3162 µM), 0.837; with Motesanib + AZD7762 (first compound 1 µM) it was 0.842.

Turning to LCLC-97TM1, the relative viability with Motesanib + Vorinostat (first compound 0.01 µM) worked out at 0.796; in the assay with Motesanib + Vorinostat (first compound 0.03162 µM), 0.884; with Motesanib + Vorinostat (first compound 0.1 µM), 0.495; with Motesanib + Vorinostat (first compound 0.3162 µM), 0.858; with Motesanib + Vorinostat (first compound 1 µM), 0.575; with Motesanib + AZD7762 (first compound 0.03162 µM) it was 0.328. For the same cell line, the relative viability with Motesanib + AZD7762 (first compound 0.1 µM) was 0.241; in the assay with Motesanib + AZD7762 (first compound 0.3162 µM) it was 0.238; in the assay with Motesanib + AZD7762 (first compound 1 µM), 0.256.

Consider LCLC-103H, for which the relative viability was 0.756 in the assay with Motesanib + Vorinostat (first compound 0.01 µM); 0.843 with Motesanib + Vorinostat (first compound 0.03162 µM); 0.815 with Motesanib + Vorinostat (first compound 0.1 µM); 1.02 in the assay with Motesanib + Vorinostat (first compound 0.3162 µM); 0.762 in the assay with Motesanib + Vorinostat (first compound 1 µM); 0.802 with Motesanib + AZD7762 (first compound 0.01 µM). Moreover, the relative viability came out at 0.743 in the assay with Motesanib + AZD7762 (first compound 0.03162 µM), 0.781 in the assay with Motesanib + AZD7762 (first compound 0.1 µM), 0.825 with Motesanib + AZD7762 (first compound 0.3162 µM) and 0.829 with Motesanib + AZD7762 (first compound 1 µM).

With LK-2, the relative viability with Motesanib + Vorinostat (first compound 0.01 µM) was determined as 0.271; with Motesanib + Vorinostat (first compound 0.03162 µM), 0.311; with Motesanib + Vorinostat (first compound 0.1 µM) it was 0.386; in the assay with Motesanib + Vorinostat (first compound 0.3162 µM), 0.433; with Motesanib + Vorinostat (first compound 1 µM), 0.486; with Motesanib + AZD7762 (first compound 0.01 µM), 0.364. For the same cell line, the relative viability worked out at 0.337 with Motesanib + AZD7762 (first compound 0.03162 µM), 0.281 with Motesanib + AZD7762 (first compound 0.1 µM), 0.497 with Motesanib + AZD7762 (first compound 0.3162 µM) and 0.371 in the assay with Motesanib + AZD7762 (first compound 1 µM).

Regarding NCI-H520, the relative viability with Motesanib + Vorinostat (first compound 0.01 µM) came to 0.664; with Motesanib + Vorinostat (first compound 0.03162 µM) it was 0.759; with Motesanib + Vorinostat (first compound 0.1 µM), 0.687; in the assay with Motesanib + Vorinostat (first compound 0.3162 µM), 0.734; with Motesanib + Vorinostat (first compound 1 µM), 0.686.

For the cell line NCI-H661, the relative viability turned out to be 0.775 with Motesanib + Vorinostat (first compound 0.01 µM); 0.737 in the assay with Motesanib + Vorinostat (first compound 0.03162 µM); 0.766 with Motesanib + Vorinostat (first compound 0.1 µM); 0.797 in the assay with Motesanib + Vorinostat (first compound 0.3162 µM); 0.883 with Motesanib + Vorinostat (first compound 1 µM).

Take NCI-H1650: the relative viability with Motesanib + Vorinostat (first compound 0.01 µM) turned out to be 0.642; with Motesanib + Vorinostat (first compound 0.03162 µM), 0.6; with Motesanib + Vorinostat (first compound 0.1 µM) it was 0.714; with Motesanib + Vorinostat (first compound 0.3162 µM), 0.67; in the assay with Motesanib + Vorinostat (first compound 1 µM), 0.571.

As to NCI-H1703, the relative viability was determined as 0.127 in the assay with Motesanib + AZD7762 (first compound 0.03162 µM), 0.139 with Motesanib + AZD7762 (first compound 0.1 µM), 0.13 in the assay with Motesanib + AZD7762 (first compound 0.3162 µM) and 0.13 with Motesanib + AZD7762 (first compound 1 µM).

NCI-H1792: the relative viability in the assay with Motesanib + AZD7762 (first compound 0.01 µM) was 0.621; with Motesanib + AZD7762 (first compound 0.03162 µM), 0.706; in the assay with Motesanib + AZD7762 (first compound 0.1 µM) it was 0.92; with Motesanib + AZD7762 (first compound 0.3162 µM), 0.635; with Motesanib + AZD7762 (first compound 1 µM) it was 0.71.

Turning to NCI-H2009, the relative viability with Motesanib + Vorinostat (first compound 0.01 µM) is 0.671; with Motesanib + Vorinostat (first compound 0.03162 µM), 0.636; with Motesanib + Vorinostat (first compound 0.1 µM), 0.823; with Motesanib + Vorinostat (first compound 0.3162 µM), 0.729; with Motesanib + Vorinostat (first compound 1 µM), 0.71.

NCI-H2023: the relative viability in the assay with Motesanib + Vorinostat (first compound 0.01 µM) came to 0.729; in the assay with Motesanib + Vorinostat (first compound 0.03162 µM), 0.606; in the assay with Motesanib + Vorinostat (first compound 0.1 µM), 0.615; with Motesanib + Vorinostat (first compound 0.3162 µM), 0.838; in the assay with Motesanib + Vorinostat (first compound 1 µM), 0.723.

For the cell line NCI-H2228, the relative viability came to 0.667 with Motesanib + Vorinostat (first compound 0.01 µM); 0.539 with Motesanib + Vorinostat (first compound 0.03162 µM); 0.737 with Motesanib + Vorinostat (first compound 0.1 µM); 0.528 with Motesanib + Vorinostat (first compound 0.3162 µM); 0.612 with Motesanib + Vorinostat (first compound 1 µM).

As to SK-LU-1, the relative viability in the assay with Motesanib + Vorinostat (first compound 0.01 µM) was determined as 0.792; in the assay with Motesanib + Vorinostat (first compound 0.03162 µM) it was 0.745; with Motesanib + Vorinostat (first compound 0.1 µM), 0.839; with Motesanib + Vorinostat (first compound 0.3162 µM) it was 0.743; with Motesanib + Vorinostat (first compound 1 µM) it was 0.813.

With SK-MES-1, the relative viability in the assay with Motesanib + Vorinostat (first compound 0.01 µM) amounted to 1.13; in the assay with Motesanib + Vorinostat (first compound 0.03162 µM), 1.12; with Motesanib + Vorinostat (first compound 0.1 µM), 1.25; in the assay with Motesanib + Vorinostat (first compound 0.3162 µM) it was 1.16; with Motesanib + Vorinostat (first compound 1 µM), 1.16.

On to SW 1573, for which the relative viability was 0.77 with Motesanib + Vorinostat (first compound 0.01 µM); 0.799 in the assay with Motesanib + Vorinostat (first compound 0.03162 µM); 0.738 with Motesanib + Vorinostat (first compound 0.1 µM); 0.834 with Motesanib + Vorinostat (first compound 0.3162 µM); 1.04 in the assay with Motesanib + Vorinostat (first compound 1 µM).

On to UMC-11, for which the relative viability with Motesanib + Vorinostat (first compound 0.01 µM) amounted to 0.44; in the assay with Motesanib + Vorinostat (first compound 0.03162 µM) it was 0.438; in the assay with Motesanib + Vorinostat (first compound 0.1 µM) it was 0.345; with Motesanib + Vorinostat (first compound 0.3162 µM) it was 0.426; in the assay with Motesanib + Vorinostat (first compound 1 µM), 0.476.
